Results reported in PubChem BioAssay (NCI).
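Each compound was tested at five concentrations against cells in 96-well plates for 48 hours. TGI: concentration producing complete growth inhibition.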

Legend:
Test in all cases: NCI anticancer screen, dose series, 48 h
MALME-3M melanoma = test system: MALME-3M melanoma
BT-549 breast = test system: BT-549 breast
COLO 205 colon = test system: COLO 205 colon
MDA-MB-231 breast = test system: MDA-MB-231 breast
SK-MEL-28 melanoma = test system: SK-MEL-28 melanoma
NCI-H460 lung = test system: NCI-H460 lung
EKVX NSCLC = test system: EKVX NSCLC
SNB-75 CNS = test system: SNB-75 CNS
DLD-1 colon = test system: DLD-1 colon
DMS 273 small cell lung = test system: DMS 273 small cell lung
LXFL 529 NSCLC = test system: LXFL 529 NSCLC
M19-MEL melanoma = test system: M19-MEL melanoma

Compound | TGI (MALME-3M melanoma) [µM] | TGI (BT-549 breast) [µM] | TGI (COLO 205 colon) [µM] | TGI (MDA-MB-231 breast) [µM] | TGI (SK-MEL-28 melanoma) [µM] | TGI (NCI-H460 lung) [µM] | TGI (EKVX NSCLC) [µM] | TGI (SNB-75 CNS) [µM] | TGI (DLD-1 colon) [µM] | TGI (DMS 273 small cell lung) [µM] | TGI (LXFL 529 NSCLC) [µM] | TGI (M19-MEL melanoma) [µM]
NC(=O)NN=C1Cc2ccccc2C1 | > 100 | > 100 | > 100 | > 100 | > 100 | > 100 | > 100 | > 100 | – | – | – | –
NC(=O)C1CCN(Cc2c(Cl)c(Cl)c(CN3CCC(C(N)=O)CC3)c(Cl)c2Cl)CC1 | > 100 | > 100 | > 100 | 96 | > 100 | > 100 | > 100 | 63.6 | – | – | – | –
Cc1cccc2c1CC(Cc1ccccc1C(=O)O)C2=O (configuration not stated) | > 100 | > 100 | > 100 | > 100 | > 100 | > 100 | > 100 | > 100 | – | – | – | –
CCOC(=O)c1c(SCc2cc(=O)[nH]c(=O)[nH]2)n(-c2ccccc2)c(=S)n(-c2ccccc2)c1=O | > 100 | > 100 | > 100 | > 100 | > 100 | > 100 | > 100 | > 100 | – | – | – | –
CCOC(=O)N1CCN(c2c(N)nc(C)[nH]c2=O)CC1 | > 100 | > 100 | > 100 | > 100 | > 100 | > 100 | > 100 | > 100 | – | – | – | –
Cc1cc(S(=O)(=O)N=C2Nc3cccc4cccc(c34)N2)c(S)cc1Cl | > 100 | > 100 | > 100 | > 100 | > 100 | > 100 | > 100 | > 100 | – | – | – | –
CC(C)=CCC[C@@H](C)C1=C(Nc2ccccc2F)C(O)=C(C)C(=O)C1=O | 29.5 | > 100 | 12.4 | > 100 | > 64.3 | > 100 | > 100 | > 100 | – | – | – | –
O=[N+]([O-])c1ccc(-c2csc(=[N+]3CCCCC3)s2)cc1 | 32.1 | – | 5.58 | – | > 100 | > 100 | > 100 | > 26.5 | > 100 | > 100 | > 100 | > 45.9
CNC(=O)CN(CC(=O)O)C(=O)NC | > 100 | – | > 100 | – | – | – | > 100 | > 100 | > 100 | > 100 | > 100 | > 100
COc1ccc2c(c1OC)C(=O)N1C2=Cc2c(cc3c(c2OC)OCO3)CC1N(C)C (configuration not stated) | > 100 | > 100 | > 100 | > 100 | > 100 | > 100 | > 100 | > 100 | – | – | – | –
CO[P@@]1(=O)O[C@@H](c2ccccc2)[C@H](O)[C@]1(O)c1ccccc1 | > 100 | > 100 | > 100 | > 100 | > 100 | > 100 | 60.4 | > 100 | – | – | – | –
C/C(=C\CSCC(N)C(=O)O)CC/C=C(\C)CNc1ccccc1 (configuration not stated) | > 100 | > 100 | > 100 | > 100 | > 100 | > 100 | > 100 | > 100 | – | – | – | –
CC1=C(C)SC(=C2Sc3c(n(C)c(=O)n(C)c3=O)S2)S1 | > 100 | > 100 | > 100 | 75.3 | > 100 | > 100 | > 100 | 52.3 | – | – | – | –
O=C1Nc2cc(F)ccc2C1=O | > 100 | – | > 100 | – | > 100 | > 100 | > 100 | > 100 | > 100 | > 100 | > 100 | > 100
CC1(C)OCC(C2OC(C)(C)OC2[C@H]2O[C@@]3(O)[C@H]4[C@H](C=CC[C@@H]42)[C@@H](OCc2ccccc2)[C@H](OCc2ccccc2)[C@H]3OCc2ccccc2)O1 (some centres not stated) | > 100 | > 100 | > 100 | > 100 | > 100 | > 100 | > 100 | > 100 | – | – | – | –
COc1ccc(C2c3cc4c(cc3OC(Nc3ccccc3)C2C)OCO4)cc1 (configuration not stated) | > 100 | > 100 | > 100 | > 100 | > 100 | > 100 | 98.7 | > 100 | – | – | – | –
NCCCCNCCCN1CCOC1=O | > 100 | > 100 | > 100 | > 100 | > 100 | > 100 | > 100 | > 100 | – | – | – | –
CN(C)CCNCCCNc1c2ccccc2nc2cccc([N+](=O)[O-])c12 | 0.104 | 0.624 | 0.0245 | 0.0832 | 0.442 | 0.108 | 0.0617 | 0.0573 | – | – | – | –
COc1cc2c(cc1OCc1ccccc1)NC(=O)[C@@H]1CCCN1C2=O | > 100 | > 100 | > 100 | > 100 | > 100 | > 100 | > 100 | > 100 | – | – | – | –
C=CN(C=C)C(=O)Cn1cc(-c2ccccc2)nn1 | > 100 | > 100 | > 100 | > 100 | > 100 | > 100 | > 100 | > 100 | – | – | – | –
CCC1([N+](=O)[O-])CN(N=O)C1 | > 100 | > 100 | > 100 | > 100 | > 100 | > 100 | > 100 | > 100 | – | – | – | –
